ChEMBL document CHEMBL4507297, “Data for DCP probe PF-04457845” (2021)

Tests used:
[1] = system: Tyrosine-protein kinase ABL1 (Homo sapiens), P00519 [E255K]; conditions: Compound concentration 1000.0 nM
[2] = target: RAC-gamma serine/threonine-protein kinase (Homo sapiens) (UniProt Q9Y243); conditions: Compound concentration 1000.0 nM
[3] = system: ALK tyrosine kinase receptor (Homo sapiens), Q9UM73 [C1156Y]; conditions: Compound concentration 1000.0 nM
[4] = target: Aurora kinase B (Homo sapiens) (UniProt Q96GD4); conditions: Compound concentration 1000.0 nM
Sequence of Aurora kinase B (Homo sapiens) (Q96GD4 whole entry): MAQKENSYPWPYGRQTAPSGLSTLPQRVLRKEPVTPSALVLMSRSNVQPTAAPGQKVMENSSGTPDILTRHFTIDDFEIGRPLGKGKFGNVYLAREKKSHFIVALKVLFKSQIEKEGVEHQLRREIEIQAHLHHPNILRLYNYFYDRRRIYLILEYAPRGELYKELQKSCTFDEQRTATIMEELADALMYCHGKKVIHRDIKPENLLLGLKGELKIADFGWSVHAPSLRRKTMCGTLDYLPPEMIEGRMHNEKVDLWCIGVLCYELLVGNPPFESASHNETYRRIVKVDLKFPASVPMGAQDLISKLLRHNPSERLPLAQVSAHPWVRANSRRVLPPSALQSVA

[5] = target: Serine/threonine-protein kinase BRSK2 (Homo sapiens) (UniProt Q8IWQ3); conditions: Compound concentration 1000.0 nM
[6] = target: Cyclin-dependent kinase 11B (Homo sapiens) (UniProt P21127); conditions: Compound concentration 1000.0 nM
[7] = target: Dual specificity protein kinase CLK1 (Homo sapiens) (UniProt P49759); conditions: Compound concentration 1000.0 nM
[8] = target: Death-associated protein kinase 2 (Homo sapiens) (UniProt Q9UIK4); conditions: Compound concentration 1000.0 nM
Sequence of Death-associated protein kinase 2 (Homo sapiens) (Q9UIK4 whole entry, looked up): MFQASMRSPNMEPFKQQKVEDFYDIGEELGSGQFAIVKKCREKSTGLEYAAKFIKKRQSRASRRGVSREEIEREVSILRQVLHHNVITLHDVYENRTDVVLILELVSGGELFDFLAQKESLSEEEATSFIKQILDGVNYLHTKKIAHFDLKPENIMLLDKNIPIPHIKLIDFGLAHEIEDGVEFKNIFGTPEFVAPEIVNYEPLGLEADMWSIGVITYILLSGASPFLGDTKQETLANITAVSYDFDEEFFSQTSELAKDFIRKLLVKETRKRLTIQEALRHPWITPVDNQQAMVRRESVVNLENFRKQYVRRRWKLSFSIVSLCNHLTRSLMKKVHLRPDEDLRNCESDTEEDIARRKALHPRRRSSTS

[9] = target: Dual specificity tyrosine-phosphorylation-regulated kinase 2 (Homo sapiens) (UniProt Q92630); conditions: Compound concentration 1000.0 nM
[10] = target: Ephrin type-A receptor 1 (Homo sapiens) (UniProt P21709); conditions: Compound concentration 1000.0 nM
[11] = target: Ephrin type-A receptor 8 (Homo sapiens) (UniProt P29322); conditions: Compound concentration 1000.0 nM
[12] = target: Tyrosine-protein kinase Fer (Homo sapiens) (UniProt P16591); conditions: Compound concentration 1000.0 nM
[13] = target: Homeodomain-interacting protein kinase 2 (Homo sapiens) (UniProt Q9H2X6); conditions: Compound concentration 1000.0 nM
[14] = target: Insulin receptor (Homo sapiens) (UniProt P06213); conditions: Compound concentration 1000.0 nM
[15] = target: Mitogen-activated protein kinase 8 (Homo sapiens) (UniProt P45983); conditions: Compound concentration 1000.0 nM
[16] = target: Serine/threonine-protein kinase LATS2 (Homo sapiens) (UniProt Q9NRM7); conditions: Compound concentration 1000.0 nM
[17] = target: Serine/threonine-protein kinase MARK1 (Homo sapiens) (UniProt Q9P0L2); conditions: Compound concentration 1000.0 nM
Sequence of Serine/threonine-protein kinase MARK1 (Homo sapiens) (Q9P0L2 whole entry, looked up): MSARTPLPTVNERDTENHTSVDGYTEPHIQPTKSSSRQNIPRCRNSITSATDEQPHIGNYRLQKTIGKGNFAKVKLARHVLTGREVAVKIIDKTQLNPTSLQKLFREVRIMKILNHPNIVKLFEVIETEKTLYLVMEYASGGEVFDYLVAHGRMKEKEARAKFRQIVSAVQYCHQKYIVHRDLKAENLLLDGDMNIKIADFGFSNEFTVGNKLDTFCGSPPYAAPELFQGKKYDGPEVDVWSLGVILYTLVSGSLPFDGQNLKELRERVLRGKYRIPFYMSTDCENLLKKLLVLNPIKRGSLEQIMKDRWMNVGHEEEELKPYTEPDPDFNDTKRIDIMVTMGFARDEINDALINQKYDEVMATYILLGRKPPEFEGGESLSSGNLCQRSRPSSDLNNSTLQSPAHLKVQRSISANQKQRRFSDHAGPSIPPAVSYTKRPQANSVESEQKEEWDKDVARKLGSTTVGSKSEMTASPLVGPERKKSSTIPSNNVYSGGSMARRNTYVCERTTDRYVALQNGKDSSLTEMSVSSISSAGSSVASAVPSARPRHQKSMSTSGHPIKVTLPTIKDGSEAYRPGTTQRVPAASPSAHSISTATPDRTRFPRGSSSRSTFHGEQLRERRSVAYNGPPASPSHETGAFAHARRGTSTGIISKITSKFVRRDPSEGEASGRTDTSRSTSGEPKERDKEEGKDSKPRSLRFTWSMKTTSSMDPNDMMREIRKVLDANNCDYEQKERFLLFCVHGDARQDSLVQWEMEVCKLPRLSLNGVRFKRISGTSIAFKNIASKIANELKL

[18] = target: Microtubule-associated serine/threonine-protein kinase 1 (Homo sapiens) (UniProt Q9Y2H9); conditions: Compound concentration 1000.0 nM
[19] = target: Dual specificity mitogen-activated protein kinase kinase 2 (Homo sapiens) (UniProt P36507); conditions: Compound concentration 1000.0 nM
[20] = target: Dual specificity mitogen-activated protein kinase kinase 3 (Homo sapiens) (UniProt P46734); conditions: Compound concentration 1000.0 nM
[21] = target: Maternal embryonic leucine zipper kinase (Homo sapiens) (UniProt Q14680); conditions: Compound concentration 1000.0 nM
[22] = target: Serine/threonine-protein kinase 26 (Homo sapiens) (UniProt Q9P289); conditions: Compound concentration 1000.0 nM
[23] = target: Serine/threonine-protein kinase mTOR (Homo sapiens) (UniProt P42345); conditions: Compound concentration 1000.0 nM
[24] = target: Serine/threonine-protein kinase OSR1 (Homo sapiens) (UniProt O95747); conditions: Compound concentration 1000.0 nM
Sequence of Serine/threonine-protein kinase OSR1 (Homo sapiens) (O95747 2-527 limits assumed): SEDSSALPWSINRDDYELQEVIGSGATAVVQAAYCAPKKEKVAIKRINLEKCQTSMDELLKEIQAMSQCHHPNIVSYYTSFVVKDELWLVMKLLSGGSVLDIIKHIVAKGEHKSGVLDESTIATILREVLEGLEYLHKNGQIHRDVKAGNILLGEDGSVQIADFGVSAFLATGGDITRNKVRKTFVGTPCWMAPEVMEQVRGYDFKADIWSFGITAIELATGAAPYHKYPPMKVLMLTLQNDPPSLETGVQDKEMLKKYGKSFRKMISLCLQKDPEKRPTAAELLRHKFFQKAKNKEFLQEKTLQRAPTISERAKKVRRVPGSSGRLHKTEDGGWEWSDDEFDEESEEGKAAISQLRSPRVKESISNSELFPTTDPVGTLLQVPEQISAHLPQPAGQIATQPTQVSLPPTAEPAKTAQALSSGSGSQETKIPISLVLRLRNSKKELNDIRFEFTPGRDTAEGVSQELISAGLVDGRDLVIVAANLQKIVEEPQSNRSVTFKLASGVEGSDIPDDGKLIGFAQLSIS

[25] = target: Cyclin-dependent kinase 17 (Homo sapiens) (UniProt Q00537); conditions: Compound concentration 1000.0 nM
Sequence of Cyclin-dependent kinase 17 (Homo sapiens) (Q00537 whole entry, looked up): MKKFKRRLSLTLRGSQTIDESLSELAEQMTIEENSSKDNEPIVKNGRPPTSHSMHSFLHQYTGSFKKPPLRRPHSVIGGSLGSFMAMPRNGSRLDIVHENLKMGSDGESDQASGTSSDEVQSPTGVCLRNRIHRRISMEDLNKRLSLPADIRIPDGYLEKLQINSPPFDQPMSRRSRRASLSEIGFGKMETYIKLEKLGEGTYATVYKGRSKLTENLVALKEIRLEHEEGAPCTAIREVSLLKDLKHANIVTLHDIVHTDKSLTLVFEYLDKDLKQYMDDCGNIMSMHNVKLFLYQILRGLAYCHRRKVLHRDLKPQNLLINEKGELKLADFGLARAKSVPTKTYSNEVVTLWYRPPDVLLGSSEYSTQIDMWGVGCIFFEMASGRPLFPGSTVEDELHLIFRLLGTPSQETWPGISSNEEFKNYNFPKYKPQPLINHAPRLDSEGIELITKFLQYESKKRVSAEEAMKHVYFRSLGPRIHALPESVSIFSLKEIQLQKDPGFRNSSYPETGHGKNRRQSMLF

[26] = target: Platelet-derived growth factor receptor alpha (Homo sapiens) (UniProt P16234); conditions: Compound concentration 1000.0 nM
[27] = target: Phosphorylase b kinase regulatory subunit alpha, liver isoform (Homo sapiens) (UniProt P46019); conditions: Compound concentration 1000.0 nM
[28] = target: Phosphatidylinositol 4-phosphate 3-kinase C2 domain-containing subunit beta (Homo sapiens) (UniProt O00750); conditions: Compound concentration 1000.0 nM
[29] = target: cAMP-dependent protein kinase catalytic subunit alpha (Homo sapiens) (UniProt P17612); conditions: Compound concentration 1000.0 nM
[30] = target: Serine/threonine-protein kinase PRP4 homolog (Homo sapiens) (UniProt Q13523); conditions: Compound concentration 1000.0 nM
[31] = system: Proto-oncogene tyrosine-protein kinase receptor Ret (Homo sapiens), P07949 [V804M]; conditions: Compound concentration 1000.0 nM
[32] = target: STE20-like serine/threonine-protein kinase (Homo sapiens) (UniProt Q9H2G2); conditions: Compound concentration 1000.0 nM
Sequence of STE20-like serine/threonine-protein kinase (Homo sapiens) (Q9H2G2 whole entry, looked up): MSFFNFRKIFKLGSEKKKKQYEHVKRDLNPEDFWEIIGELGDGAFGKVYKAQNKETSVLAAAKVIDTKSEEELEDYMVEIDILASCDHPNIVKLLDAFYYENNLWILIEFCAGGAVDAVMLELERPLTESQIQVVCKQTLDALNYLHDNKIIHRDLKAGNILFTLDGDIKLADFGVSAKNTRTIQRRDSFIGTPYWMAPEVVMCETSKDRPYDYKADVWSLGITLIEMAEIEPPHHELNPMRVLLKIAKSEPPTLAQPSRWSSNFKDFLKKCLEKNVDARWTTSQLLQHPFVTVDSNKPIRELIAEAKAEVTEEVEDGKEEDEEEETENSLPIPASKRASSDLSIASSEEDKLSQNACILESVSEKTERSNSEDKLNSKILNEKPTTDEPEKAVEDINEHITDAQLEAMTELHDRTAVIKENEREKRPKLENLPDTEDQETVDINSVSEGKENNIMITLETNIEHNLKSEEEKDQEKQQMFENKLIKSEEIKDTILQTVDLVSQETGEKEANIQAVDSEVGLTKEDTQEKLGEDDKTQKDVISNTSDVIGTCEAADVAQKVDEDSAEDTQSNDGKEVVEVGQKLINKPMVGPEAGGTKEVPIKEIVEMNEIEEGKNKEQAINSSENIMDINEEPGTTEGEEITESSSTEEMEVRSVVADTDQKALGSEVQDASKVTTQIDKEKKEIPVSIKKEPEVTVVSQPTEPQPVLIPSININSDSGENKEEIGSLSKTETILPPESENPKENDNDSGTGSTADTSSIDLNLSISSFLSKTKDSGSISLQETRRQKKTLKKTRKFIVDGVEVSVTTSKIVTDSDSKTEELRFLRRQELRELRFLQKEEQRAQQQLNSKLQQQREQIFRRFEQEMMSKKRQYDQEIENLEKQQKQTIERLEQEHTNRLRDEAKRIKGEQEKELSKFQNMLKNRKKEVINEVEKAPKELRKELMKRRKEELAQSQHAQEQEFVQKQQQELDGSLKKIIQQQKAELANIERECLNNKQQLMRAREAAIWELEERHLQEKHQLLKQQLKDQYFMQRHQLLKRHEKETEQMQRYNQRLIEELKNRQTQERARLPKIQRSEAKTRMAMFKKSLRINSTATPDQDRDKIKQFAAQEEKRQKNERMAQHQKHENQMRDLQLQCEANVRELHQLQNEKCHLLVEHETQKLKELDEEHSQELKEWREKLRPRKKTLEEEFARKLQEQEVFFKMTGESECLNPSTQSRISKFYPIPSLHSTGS

[33] = target: Serine/threonine-protein kinase TNNI3K (Homo sapiens) (UniProt Q59H18); conditions: Compound concentration 1000.0 nM
[34] = target: Transient receptor potential cation channel subfamily M member 6 (Homo sapiens) (UniProt Q9BX84); conditions: Compound concentration 1000.0 nM
[35] = target: Tyrosine-protein kinase TXK (Homo sapiens) (UniProt P42681); conditions: Compound concentration 1000.0 nM
[36] = target: Serine/threonine-protein kinase VRK2 (Homo sapiens) (UniProt Q86Y07); conditions: Compound concentration 1000.0 nM
[37] = target: T1, 5-hydroxytryptamine receptor 2C (Homo sapiens) (UniProt P28335); conditions: Compound concentration 10.0 uM
T1 sequence (whole entry): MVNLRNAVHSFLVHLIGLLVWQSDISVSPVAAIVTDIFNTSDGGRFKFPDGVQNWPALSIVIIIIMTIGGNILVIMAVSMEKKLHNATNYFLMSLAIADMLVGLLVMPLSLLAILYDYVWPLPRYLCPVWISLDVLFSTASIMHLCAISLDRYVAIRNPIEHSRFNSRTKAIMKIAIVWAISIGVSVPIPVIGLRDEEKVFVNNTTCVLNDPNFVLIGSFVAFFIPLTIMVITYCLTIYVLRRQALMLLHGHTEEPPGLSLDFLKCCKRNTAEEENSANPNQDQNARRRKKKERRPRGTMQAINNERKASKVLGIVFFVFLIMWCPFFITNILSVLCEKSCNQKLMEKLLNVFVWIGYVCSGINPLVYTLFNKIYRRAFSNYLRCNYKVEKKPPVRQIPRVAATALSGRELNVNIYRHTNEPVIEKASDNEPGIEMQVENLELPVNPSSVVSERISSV

[38] = target: Beta-1 adrenergic receptor (Homo sapiens) (UniProt P08588); conditions: Compound concentration 10.0 uM
Sequence of Beta-1 adrenergic receptor (Homo sapiens) (P08588 whole entry, looked up): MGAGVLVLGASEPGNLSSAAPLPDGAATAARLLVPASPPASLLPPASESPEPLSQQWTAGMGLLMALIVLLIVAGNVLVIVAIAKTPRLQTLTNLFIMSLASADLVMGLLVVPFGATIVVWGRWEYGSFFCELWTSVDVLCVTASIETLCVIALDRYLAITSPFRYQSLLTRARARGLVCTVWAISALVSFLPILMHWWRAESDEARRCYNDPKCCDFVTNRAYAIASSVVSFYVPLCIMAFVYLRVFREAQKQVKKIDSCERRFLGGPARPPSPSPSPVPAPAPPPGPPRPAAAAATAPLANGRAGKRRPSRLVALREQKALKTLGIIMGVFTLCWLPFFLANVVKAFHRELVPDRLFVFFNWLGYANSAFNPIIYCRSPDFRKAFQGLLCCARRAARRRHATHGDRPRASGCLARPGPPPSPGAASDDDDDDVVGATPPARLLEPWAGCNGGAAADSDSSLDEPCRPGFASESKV

[39] = target: Muscarinic acetylcholine receptor M5 (Homo sapiens) (UniProt P08912); conditions: Compound concentration 10.0 uM

Sequence of RAC-gamma serine/threonine-protein kinase (Homo sapiens) (Q9Y243 whole entry): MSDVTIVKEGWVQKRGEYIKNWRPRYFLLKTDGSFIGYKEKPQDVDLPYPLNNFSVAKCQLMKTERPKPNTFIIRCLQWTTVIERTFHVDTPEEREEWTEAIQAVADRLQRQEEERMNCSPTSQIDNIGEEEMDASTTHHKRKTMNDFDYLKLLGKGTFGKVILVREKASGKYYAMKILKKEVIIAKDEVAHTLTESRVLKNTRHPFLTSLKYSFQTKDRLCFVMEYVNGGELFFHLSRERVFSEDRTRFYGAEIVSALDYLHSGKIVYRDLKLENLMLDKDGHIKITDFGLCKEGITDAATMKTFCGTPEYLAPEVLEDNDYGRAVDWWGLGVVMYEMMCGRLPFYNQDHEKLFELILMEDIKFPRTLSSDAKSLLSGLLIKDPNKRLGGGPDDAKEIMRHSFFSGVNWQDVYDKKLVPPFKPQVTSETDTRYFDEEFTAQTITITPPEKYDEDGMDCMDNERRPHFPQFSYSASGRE

Row | SMILES | residual activity [1] [%] | residual activity [2] [%] | residual activity [3] [%] | residual activity [4] [%] | residual activity [5] [%] | residual activity [6] [%] | residual activity [7] [%] | residual activity [8] [%] | residual activity [9] [%] | residual activity [10] [%] | residual activity [11] [%] | residual activity [12] [%] | residual activity [13] [%] | residual activity [14] [%] | residual activity [15] [%] | residual activity [16] [%] | residual activity [17] [%] | residual activity [18] [%] | residual activity [19] [%] | residual activity [20] [%] | further results
1 | O=C(Nc1cccnn1)N1CC(C/C=C/c2cncc(Oc3ccc(C(F)(F)F)cn3)n2)C1 | 81 | 100 | 81 | 59 | 100 | 100 | 100 | 100 | 81 | 100 | 100 | 100 | 89 | 100 | 75 | 100 | 100 | 58 | 95 | 72 | residual activity [21]: 100%; residual activity [22]: 71%; residual activity [23]: 100%; residual activity [24]: 71%; residual activity [25]: 100%; residual activity [26]: 80%; residual activity [27]: 100%; residual activity [28]: 93%; residual activity [29]: 93%; residual activity [30]: 100%; residual activity [31]: 100%; residual activity [32]: 100%; residual activity [33]: 100%; residual activity [34]: 73%; residual activity [35]: 100%; residual activity [36]: 97%; inhibition [37]: 1.89%; inhibition [38]: 1.97%; inhibition [39]: -0.59%
2 | O=C(Nc1cccnn1)N1CCC(=Cc2cccc(Oc3ccc(C(F)(F)F)cn3)c2)CC1 | 85 | 100 | 100 | 100 | 90 | 100 | 95 | 69 | 81 | 100 | 100 | 74 | 100 | 100 | 100 | 84 | 84 | 100 | 100 | 100 | residual activity [21]: 100%; residual activity [22]: 100%; residual activity [23]: 87%; residual activity [24]: 100%; residual activity [25]: 100%; residual activity [26]: 100%; residual activity [27]: 88%; residual activity [28]: 91%; residual activity [29]: 100%; residual activity [30]: 100%; residual activity [31]: 100%; residual activity [32]: 74%; residual activity [33]: 100%; residual activity [34]: 98%; residual activity [35]: 100%; residual activity [36]: 100%; inhibition [37]: 64.6%; inhibition [38]: 16.5%; inhibition [39]: 23.5%
